# Measurements: ChEMBL document CHEMBL3507680, “University of Dundee, Gates Library screen for HepG2 cell viability”
# Experiment: Human HepG2 cell viability assay in 384 well format
# Format: toxicity, cell-based
# Design: dose 125 nL, time 70.5 hour; concentration not given beside the values
# Settings: HepG2 cells, read-out: Inhibition
row,SMILES,cytotoxicity at 70.5 h [%]
1,Cc1cc(C)n(CC(C)NC2CCN(Cc3cccc(O)c3)CC2)n1 (stereo not drawn),-7.84
2,COc1ccc(-c2n[nH]c(C)c2CC(=O)NCCN2CCOCC2)cc1,-2.78
3,CC(NC(=O)c1cccs1)C(=O)Nc1cccnc1N1CCCCC1 (stereo not drawn),2.11
4,CC(C)C(=O)N1CCCC([C@@H]2C[C@H](C(F)F)n3ncnc3N2)C1 (stereo partly drawn),-3.96
5,CC(C)c1cc(C(=O)NCCn2nc3ccccn3c2=O)n[nH]1,-4.09
6,CCOC1CCCN(C(=O)CCOc2ccc(C)cc2OC)C1 (stereo not drawn),24.8
7,Cc1cnc(C(=O)NC(CN2CCCC2=O)c2ccccc2)cn1 (stereo not drawn),-1.21
8,COc1cc(OC)cc(N2CCC(NC(=O)c3cccn3C)CC2)c1,-13.4
9,Cc1ccnc(C2(C)CCCN2S(=O)(=O)c2cccnc2)n1 (stereo not drawn),-3.08
10,CN(C1CCCC1)C(C)(C)C(=O)NCCS(C)(=O)=O,2.52
11,CC(=O)N1C[C@@H]2CC[C@H](C1)N(C(=O)CCc1n[nH]c3c1CCCC3)C2,1.78
12,Nc1cc(N2CCCC(COc3ccc(F)cc3)C2)nc(N)n1 (stereo not drawn),-2.71
13,CSc1nccc(N2CCC3(CCCN(Cc4ccc(F)cc4)C3)C2)n1 (stereo not drawn),-3.25
14,CCOc1ccc(Cl)c(C(=O)NCCC(=O)Nc2ccncc2)n1,0.642
15,Cc1noc(C(C)C)c1C(=O)NCCCN1CCC(C)CC1,-13
16,O=C(NCC1CC1)Nc1cccc(N2CCN(CC3CC3)CC2)c1,-0.269
17,CN(Cc1ccc(F)cc1)C(=O)c1ccoc1CN1CCNC(=O)C1,-18.2
18,CCS(=O)(=O)CCCOc1nc(-c2ccccc2Cl)no1,-96.6
19,CC(NCCc1nccn1Cc1ccccc1)c1cccs1 (stereo not drawn),13.3
20,CCN(Cc1ccc(C(C)C)cc1)C(=O)c1csc(CN(C)C)n1,7.36
21,CC(C)c1nc(CN(C)C2CCN(Cc3nnc(C4CC4)o3)C2)no1 (stereo not drawn),1.8
22,O=C1CC2(CCN(Cc3ccsc3)C2)CN1c1ccc2c(c1)OCO2 (stereo not drawn),10.9
23,O=C(NCCCNC(=O)C1CCC1)NCCn1cccc1,-5.85

row,SMILES,cytotoxicity at 70.5 h [%]
1,O=C1NCCN1CCNc1cc(-c2ccccc2)nc2ccnn12,-2.75
2,NC(=O)c1cccnc1N1C[C@@H]2CC[C@H](C1)N(Cc1ccccn1)C2=O,5.12
3,CN(C)C1COC2(CCN(S(=O)(=O)c3ccc(F)cc3)CC2)C1 (stereo not drawn),-13.4
4,Cn1ncc2c(=O)[nH]c(N3CCN(C(=O)c4ccsc4)CC3)nc21,14.1
5,CC(C)(NCc1cccc(C#N)c1)c1ccc2c(c1)OCO2,-9.81
6,COc1c(Cl)cc(Cl)cc1CN1CCC(C(N)=O)C1 (stereo not drawn),8.49
7,COc1ccnc(N2CCCN(C(=O)CCc3cnn(C)c3)CC2)n1,-10.3
8,Cc1nc(O)cc(C2CCN(C(=O)c3[nH]nc4c3CC(C)CC4)CC2)n1 (stereo not drawn),-11
9,O=C(Cn1cncn1)NCC1(O)CCCc2ccccc21 (stereo not drawn),23.9
10,O=C(Nc1cccc(Cl)c1)c1nn(C2CCS(=O)(=O)C2)c2c1CCCC2 (stereo not drawn),13.9
11,Cc1cnn(CCC(=O)Nc2ccc(F)cc2OCC2CC2)c1,-12.1
12,O=S(=O)(NCc1ccccc1Cn1cncn1)N1CCCCCC1,-7.52
13,NC(=O)c1ccc(N2CCCCC2)c(NC(=O)c2ccc(F)cc2Cl)c1,3.11
14,OC1=C2C(=Nc3n[nH]c(O)c3C2c2ccccc2Cl)CCC1 (stereo not drawn),9.03
15,O=C(c1ccno1)N1CCOC[C@H](Oc2ccc(C(F)(F)F)cc2)C1,-0.658
16,CNc1snc(C)c1C(=O)N1CCCC(n2cccn2)C1 (stereo not drawn),-15
17,N#CCCN(CCC#N)C(=O)c1ccc(OCC2CC2)cc1,-7.55
18,Cn1cc(Cl)c(CN2CCn3nc(C(=O)N4CCCC4)cc3C2)n1,-4.39
19,NC(=O)CS(=O)(=O)Cc1cc(Cl)c2c(c1)OCCCO2,13.8
20,Cc1nc(-c2ccccc2)sc1CSCCC(N)=O,12.1
21,O=C1N(c2ccsc2)CCC12CCCN(CC1CC1)C2 (stereo not drawn),-4.66
22,CN(C)c1cnn(CC(=O)N2CCN(Cc3cccs3)CC2)c(=O)c1,-8.39
23,Cc1ccc(-c2c[nH]c([C@@H]3COCCN3Cc3ncc[nH]3)n2)cc1,6.46

row,SMILES,cytotoxicity at 70.5 h [%]
1,CCNc1ccnc(-c2ccnc3c2ccn3C)n1,-2.33
2,Cc1cnc(N2CCn3cc(CNC(=O)CC4CC4)nc3C2)nc1,25.9
3,CCC(CN1CCCC1)n1cncc1-c1cnn(-c2ccc(F)cc2)c1 (stereo not drawn),-5.95
4,CC(C)CC(=O)N1CCC2(CC1)OCCO2,-6.38
5,CN(Cc1ccccc1F)C(=O)c1cc(Cl)c[nH]1,-2.89
6,Cc1cc2c(cc1C)OC1(C=C2)CCN(CC(=O)N2CCOCC2)CC1,-8.77
7,CC(=O)N1CC[C@@H]2O[C@@H](COCC(=O)N3CCCC3)CC[C@@H]21,23.9
8,COc1cccc(CC2CCCN2CC(N)=O)c1 (stereo not drawn),-8.71
9,Cc1nc(CN2C(=O)C[C@@H]3[C@@H]2CCN3Cc2cnn(C)c2)cs1,-15.4
10,Cc1ccc(C(=O)N2CCCC(CNS(=O)(=O)C(C)C)C2)cc1 (stereo not drawn),-3.09
11,COCC(=O)N1C[C@H]2CNC[C@@]2(C(=O)NCc2cc(C)n[nH]2)C1,-5.27
12,Cc1cccc2[nH]c(C3CCCN3Cc3ccc(CO)o3)nc12 (stereo not drawn),-9.7
13,COC1CCCN(C(=O)c2sc(CC(C)C)nc2C)C1 (stereo not drawn),-6.5
14,CCCC(NC(=O)c1cncc(C)c1)c1nnn[nH]1 (stereo not drawn),6.22
15,Cn1ccnc1NC[C@@H]1CCC[C@@H]2CN(CC3CC3)C[C@@H]21,-9.55
16,Cc1sc2c(C3CCCN(S(C)(=O)=O)C3)nc(C)n2c1C (stereo not drawn),-9.83
17,COCCN1C[C@@H]2CCCO[C@@H]2[C@H](N(C)Cc2ccco2)C1,-2.22
18,O=C(Nc1ccc(F)cc1)N(CCC(F)(F)F)C[C@H](O)CO,-0.146
19,CC(NC(=O)c1ccc(=O)n(C)c1)c1ccc(OCC2CC2)c(F)c1 (stereo not drawn),-11.1
20,Cc1ccc(-c2nc(CNC3CCc4ncnn4C3)co2)cc1 (stereo not drawn),-9.15
21,CCC(=O)N(C)Cc1cccc(OC(C)C)c1,-5.79
22,Cc1cc(C(=O)N(CCN(C)C)Cc2ccc(Cl)cc2)no1,-0.353
23,CC(C)(C)c1noc(CN2CCN(C(=O)c3cccs3)CC2)n1,-12.1

row,SMILES,cytotoxicity at 70.5 h [%]
1,O=C(CCN1CCOC1=O)N(Cc1ccncc1)CC1CCCO1 (stereo not drawn),4.43
2,CC(CN1CCCCCC1)NCc1nncn1C1CCCCC1 (stereo not drawn),-6.55
3,O=C(NCCn1ccnc1)c1csc2c1CCCC2,-10.8
4,CCn1cnnc1CCNC(=O)CCNC(=O)c1ccccc1F,-6.14
5,CCSc1ccc(NC(=O)N2CCCC2c2ccncc2)cn1 (stereo not drawn),-8.21
6,CSC(C)CCN(Cc1ccccn1)Cc1sccc1C (stereo not drawn),-4.96
7,COCCn1c(C(=O)NCC(C)C(=O)O)cc2ccccc21 (stereo not drawn),0.983
8,Cc1nn(C)c(C)c1CCC(=O)Nc1cn(C)c(=O)n(C)c1=O,-1.93
9,Fc1ccccc1-c1nccnc1C1CCCNC1 (stereo not drawn),-8.72
10,Cn1cc(CN2CCCC3(CCN(Cc4ccncc4)C3=O)C2)cn1 (stereo not drawn),-10.1
11,O=S(=O)(c1ccccc1)N1CCC[C@]2(C[C@@H](OCC3CC3)CO2)C1,9.43
12,CNC(=O)COc1cccc(CNCc2c(C)noc2C)c1,10.2
13,CCOC(=O)c1cnn(C2CCN(C(=O)CC3CCCC3)CC2)c1N,-2.45
14,CC(C)(C)NC(=O)CN1CCCN(Cc2cc(C#N)ccc2F)CC1,4.54
15,O=C(Cc1ccco1)N1C[C@H]2CCC[C@@]2(COCc2cccnc2)C1,-10.4
16,COc1ccc(-c2noc([C@@H]3C[C@@H](O)CN3C3CCCCC3)n2)cc1,-1.99
17,CC(C)CN1CCc2[nH]cnc2C12CCN(C(=O)c1cc[nH]n1)CC2,-5.86
18,CC(C)n1nc(O)c2c1NC(=O)CSC2c1cnn(C)c1 (stereo not drawn),-19.6
19,CC(=O)N1CCCN(C(=O)CCc2c(C)noc2C)CC1,-16.4
20,Cc1cc(C(=O)N2CCc3ncnc(-c4cnn(C)c4)c3CC2)c(C)o1,-7.85
21,O=C1CSC(c2ccncc2)c2c(n(C3CCOCC3)[nH]c2=O)N1 (stereo not drawn),36.4
22,O=C(Cc1ccccc1F)NCC1CCN(CCc2ccccc2)C1 (stereo not drawn),-1.68
23,CNc1ccc(CC2CCCN(C(=O)c3scnc3C)C2)nn1 (stereo not drawn),-5.63

row,SMILES,cytotoxicity at 70.5 h [%]
1,N#Cc1ccc(CN2CCCN(C(=O)CCn3cncn3)CC2)cc1,-10.9
2,CCOCCN(C)C(=O)Nc1cccc2c1CCN(CC)C2,10.2
3,COc1cc(C(C)=O)ccc1SCC(=O)Nc1cccc(C)n1,-19.2
4,Cn1ncc(C(=O)O)c1C(=O)Nc1nc2ccc(Br)cc2s1,14.8
5,O=C(c1ccccc1)N1C[C@H]2CCC[C@@]2(COCc2ccncc2)C1,0.753
6,Cc1nn(-c2ccccc2)c(C)c1-c1ccnc(N2CCCNCC2)n1,-2.54
7,Cn1nccc1C(=O)N1CC[C@]2(C[C@H](OCc3ccccn3)CO2)C1,-11.1
8,Cc1nnc(NCC2(c3ccccc3)CCOCC2)c(C#N)c1C,16.6
9,COC[C@@]12CC[C@@H](N3CCOCC3)C[C@H]1CCN(c1ncccc1C)C2,-0.155
10,O=c1ccc2c(n1CC1CC1)CCC(NS(=O)(=O)C1CC1)C2 (stereo not drawn),21.2
11,Cc1cccc(CN2CCc3ncnc(N4CCCC4)c3CC2)n1,-2.78
12,O=C(NCc1ccccc1CN1CCCC1)Nc1cccnc1,-4.93
13,Cc1cc(NC(=O)CN(CC(C)O)c2ccccc2)on1 (stereo not drawn),-3.15
14,CCCNc1ncc(CN2CCN(C)C(=O)C2C)cn1 (stereo not drawn),16
15,Cc1nc(CN2CCCC(NCc3c(C)nc4sccn34)C2)no1 (stereo not drawn),1.63
16,CS(=O)(=O)c1ccc(CNC(=O)NCc2cc[nH]n2)cc1,-12.3
17,CC[C@@H](NC(C)=O)C(=O)NCc1cccnc1Oc1ccccc1OC,8.31
18,CC(O)CN1CCC(CNCc2cccc(Cl)c2)CC1 (stereo not drawn),12.3
19,CC(=O)N1CCCC1c1nccnc1Nc1cccc(C)n1 (stereo not drawn),-16.6
20,Cc1cccc(C(=O)Nc2ccc(OC3CCOCC3)c(C)c2)n1,15.2
21,CC(C)n1cnc2c1C(C(=O)N1CCOCC1)N(CC1CC1)CC2 (stereo not drawn),-15.8
